Experimental data: publication PMC6321136, “Combined In Vitro Studies and in Silico Target Fishing for the Evaluation of the Biological Activities of Diphylleia cymosa and Podophyllum hexandrum” (Molecules, 2018)

Experiments:
[1] = Thiobarbituric acid reactive substances (TBARS) assay; set-up: species or system bovine
Experimental: The evaluation of antioxidant activity using the TBARS assay, with adaptations. Briefly, the samples were solubilized in methanol (50.0 to 31.25 μg/mL) and a portion of 25 μL of each extract solution was added to 10 mL test tubes in triplicate (two reaction tubes and one control). The tubes corresponding to the blank, negative and positive controls were prepared by adding 25 μL of deionized water, MeOH or propylgalate (Sigma, St. Louis, MO, USA, 0.1 mM), respectively. The phospholipid liposomes were prepared using bovine brain extract type VII (Sigma Aldrich, St. Louis, MO, USA, 10 mg/mL) in phosphate buffered saline (PBS) solution. The suspension was subjected to an ultrasonic bath until the formation of the liposomes. […] The butanolic phase was removed and transferred to a 96-well microplate, and the absorbance was recorded on a Multiskan Go microplate reader (Thermo Scientific, Whaltham, MA, USA) at 532 nm. The percentage of inhibition (%I) of lipid peroxidation was calculated as: %I = ((AC − AS)/AC) × 100 where AC is the absorbance of control, AS is the absorbance of samples. Assays were performed in triplicate and IC50 values were determined by non-linear regression using GraphPad Prism, version 6.0 (GraphPad Software, San Diego, CA, USA). […]

[2] = tested on: Pseudomonas aeruginosa ATCC 10145; assay: Antibacterial microdilution assay; type: cell-based
Experimental: (§1) Antibacterial susceptibility was performed using the modified microdilution method for bacteria, against Gram-positive (Staphylococcus aureus ATCC 25923 and Bacillus cereus ATCC 11778) and Gram-negative recognized pathogens (Escherichia coli ATCC 11775, Enterohemorrhagic E. coli ATCC 43895-EHEC, Pseudomonas aeruginosa ATCC 10145 and Salmonella choleraesuis subs. choleraesuis sorotype Typhi BM/Panama-TY2).
(§2) The experiments were performed in 96 well microplates. The extracts and isolated substance solubilized in DMSO (Vetec^TM) at 50 mg/mL were diluted in Mueller Hinton Broth (MHB, Difco) at a concentration of 500 µg/mL. The bacterial isolates, criopreserved at −80 °C were grown in Tryptic Soy Agar (TSA, Acumedia®) plates, at 37 °C for 18–24 h. The inoculum was adjusted in saline solution in a spectrophotometer at 625 nm, to a concentration of 1–5 × 10^8 CFU/mL and then diluted in MHB to 1–5 × 10^5 CFU/mL.
(§3) Volumes of 100 μL of the inoculum were added to wells containing 100 μL of the extracts at […], in triplicate (one well intended for extract control), resulting in a final concentration of 250 μg/mL. Chloramphenicol at 50 μg/mL and 0.5% DMSO were used as positive and negative controls, respectively. Evaluation of microbial growth was carried out by adding the inoculum to a well containing only MHB. Sterility of the culture medium was also confirmed by incubation in the assay plate. Assays were performed in triplicate. The microplates were incubated at 37 °C for 24 h. As an indicator of microbial growth, 20 μL of 2,3,5-triphenyltetrazolium chloride (TTC, Sigma-Aldrich, St. Louis, MO, USA) at 5 mg/mLwere added to each well. The plates were incubated at 37 °C for 3 h and then the TTC was solubilized with 100 μL of sodium lauryl sulfate solution in isopropanol 7 μg/mL and measured in a microplate reader at 485 nm. The result was expressed as the percentage of inhibition compared with the microbial growth control, and was considered positive for antibacterial activity for those extracts with an inhibition higher than 50%.

[3] = tested on: Staphylococcus aureus ATCC 25923; assay: Antibacterial microdilution assay; type: cell-based; conditions: ATCC25923, read-out: S. aureus Mean ± SD (percentage of inhibition of microbial growth)
Experimental: as §1, §2, §3

[4] = tested on: Bacillus cereus ATCC 11778; assay: Antibacterial microdilution assay; type: cell-based; conditions: ATCC11778, read-out: B. cereus Mean ± SD (percentage of inhibition of microbial growth)
Experimental: as §1, §2, §3

[5] = tested on: Escherichia coli ATCC 11775; assay: Antibacterial microdilution assay; type: cell-based; conditions: ATCC11775, read-out: E. coli Mean ± SD (percentage of inhibition of microbial growth)
Experimental: as §1, §2, §3

[6] = tested on: Antagonist, thyroid receptor (TR); set-up: method as in PubChem Bioassay AID 743067; conditions: ref PubChem Bioassay AID 743067; cited from earlier work
[7] = tested on: Cytotoxicity, Activators, heat shock response (counterscreen); set-up: method as in PubChem Bioassay AID 743209; conditions: ref PubChem Bioassay AID 743209; cited from earlier work
[8] = tested on: Antagonist, NFkB Signaling Pathway; set-up: method as in PubChem Bioassay AID 624479; conditions: ref PubChem Bioassay AID 624479; cited from earlier work
[9] = tested on: Cytotoxicity, Activate, aryl hydrocarbon receptor (AhR); set-up: method as in PubChem Bioassay AID 743086; conditions: ref PubChem Bioassay AID 743086; cited from earlier work
[10] = tested on: Cytotoxicity, Agonist, nuclear factor kappa B subunit 1; set-up: method as in PubChem Bioassay AID 1159515; conditions: ref PubChem Bioassay AID 1159515; cited from earlier work
Anti-Inflammatory model = tested on: Anti-Inflammatory model; set-up: method as in PubChem Bioassay AID 1267; conditions: ref PubChem Bioassay AID 1267; cited from earlier work
[11] = tested on: Agonist, androgen receptor (AR); set-up: method as in PubChem Bioassay AID 743040; conditions: ref PubChem Bioassay AID 743040; cited from earlier work

## COc1cc([C@@H]2c3cc4c(cc3[C@H](O)[C@H]3COC(=O)[C@H]23)OCO4)cc(OC)c1OC [Podophyllotoxin, podophyllotoxin]
[1]
  Antioxidant Activity (IC50-µg/mL) TBARS Assay: >50 µg/mL
[2]; 250 µg/mL
  P. aeruginosa Mean ± SD (percentage of inhibition of microbial growth): No antibacterial activity
[2]; Pseudomonas aeruginosa, ATCC10145, read-out: P. aeruginosa Mean ± SD (percentage of inhibition of microbial growth)
  inhibition at 250 µg/mL: 30.2 ± 9.39%
[3]
  inhibition at 250 µg/mL: 53.3 ± 8.8%
[4]
  inhibition at 250 µg/mL: 0%
[5]
  inhibition at 250 µg/mL: 51.6 ± 9.08%
[6]
  Exper. Activity: Active
[7]
  Exper. Activity: Inactive
[8]
  Exper. Activity: Inactive
[9]
  Exper. Activity: Inactive
[10]
  Exper. Activity: Inactive
Anti-Inflammatory model
  Exper. Activity: Inactive
[11]
  Exper. Activity: Inactive
